One series relates to Mus musculus. Nature of the series: Oral bioavailability in mouse at 10 mg/kg. It counts as ADME, organism-based. Conditions: in vivo.
Series [1] concerns the target Bone morphogenetic protein receptor type-1B (Homo sapiens) (UniProt O00238). As to the kind of experiment: Inhibition of recombinant human ALK6 (148 to end residues) at 1 uM using casein as substrate after 40 mins in presence of [gamma-33P]ATP by scintillation counting method.
For series [2], the target named is Aurora kinase B (Homo sapiens) (UniProt Q96GD4). As to the kind of experiment: Inhibition of recombinant full-length human Aurora-B at 1 uM using AKRRRLSSLRA as substrate after 40 mins in presence of [gamma-33P]ATP by scintillation counting method.
In series [3] the target is Calcium/calmodulin-dependent protein kinase type 1D (Homo sapiens) (UniProt Q8IU85). Nature of the series: Inhibition of recombinant full-length human CAMK1delta at 1 uM using […] after 40 mins in presence of [gamma-33P]ATP by scintillation counting method.
Series [4] addresses CDK12/Cyclin K (Homo sapiens) (UniProt O75909+Q9NYV4). As to the kind of experiment: Inhibition of recombinant full-length human CDK12/Cyclin K at 1 uM using RSRSRSRSRSRSRSR as substrate after 120 mins in presence of [gamma-33P]ATP by scintillation counting method. It counts as protein-complex assay.
Series [5] concerns the target Discoidin domain-containing receptor 2 (Homo sapiens) (UniProt Q16832). As to the kind of experiment: Inhibition of recombinant human DDR2 (467 to end residues) at 1 uM using KKSRGDYMTMQIG as substrate after 40 mins in presence of [gamma-33P]ATP by scintillation counting method.
Series [6] relates to Fibroblast growth factor receptor 1 (Homo sapiens), P11362 [V561M]. Nature of the series: Inhibition of recombinant human FGFR1 V561M mutant (456 to 765 residues) at 1 uM using GGEEEEYFELVKKKK as substrate after 40 mins in presence of [gamma-33P]ATP by scintillation counting method.
For series [7], the target named is Vascular endothelial growth factor receptor 1 (Homo sapiens) (UniProt P17948). Nature of the series: Inhibition of recombinant human Flt1 (783 to end residues) at 1 uM using KKKSPGEYVNIEFG as substrate after 40 mins in presence of [gamma-33P]ATP by scintillation counting method.
Series [8] has as its target Tyrosine-protein kinase Fyn (Homo sapiens) (UniProt P06241). Nature of the series: Inhibition of recombinant full-length human Fyn at 1 uM using KVEKIGEGTYGVVYK as substrate after 40 mins in presence of [gamma-33P]ATP by scintillation counting method.
The target in series [9] is Serine/threonine-protein kinase ICK (Homo sapiens) (UniProt Q9UPZ9). As to the kind of experiment: Inhibition of recombinant human ICK (1 to 312 residues) at 1 uM using RRRFRPASPLRGPPK as substrate after 120 mins in presence of [gamma-33P]ATP by scintillation counting method.
The target of series [10] is Inhibitor of nuclear factor kappa-B kinase subunit alpha (Homo sapiens) (UniProt O15111). Nature of the series: Inhibition of recombinant full-length human IKKalpha at 1 uM using peptide as substrate after 40 mins in presence of [gamma-33P]ATP by scintillation counting method.
Chain of Inhibitor of nuclear factor kappa-B kinase subunit alpha (Homo sapiens) (O15111 whole entry): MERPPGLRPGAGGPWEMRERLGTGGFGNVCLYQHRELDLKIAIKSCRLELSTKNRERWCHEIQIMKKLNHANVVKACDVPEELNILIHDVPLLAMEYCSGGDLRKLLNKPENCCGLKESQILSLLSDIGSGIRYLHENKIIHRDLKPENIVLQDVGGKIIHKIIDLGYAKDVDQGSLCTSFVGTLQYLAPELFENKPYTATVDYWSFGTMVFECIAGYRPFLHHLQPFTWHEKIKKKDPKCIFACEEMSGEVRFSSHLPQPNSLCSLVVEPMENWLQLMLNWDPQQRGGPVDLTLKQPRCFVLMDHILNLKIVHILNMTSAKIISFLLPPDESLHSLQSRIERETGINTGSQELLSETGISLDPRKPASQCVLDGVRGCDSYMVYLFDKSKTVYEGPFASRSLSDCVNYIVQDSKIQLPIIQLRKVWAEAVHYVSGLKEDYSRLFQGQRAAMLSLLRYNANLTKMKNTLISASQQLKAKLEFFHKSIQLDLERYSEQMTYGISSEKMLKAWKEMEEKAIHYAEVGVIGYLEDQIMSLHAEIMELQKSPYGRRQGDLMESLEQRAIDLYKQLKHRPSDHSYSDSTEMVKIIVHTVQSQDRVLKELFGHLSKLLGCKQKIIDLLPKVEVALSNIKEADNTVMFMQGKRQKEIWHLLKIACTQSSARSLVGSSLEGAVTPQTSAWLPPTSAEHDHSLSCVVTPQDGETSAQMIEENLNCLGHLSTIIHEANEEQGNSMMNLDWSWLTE
The target of series [11] is Tyrosine-protein kinase JAK3 (Homo sapiens) (UniProt P52333). As to the kind of experiment: Inhibition of recombinant human JAK3 (781 to end residues) at 1 uM using GGEEEEYFELVKKKK as substrate after 40 mins in presence of [gamma-33P]ATP by scintillation counting method.
Series [12] addresses Vascular endothelial growth factor receptor 2 (Homo sapiens) (UniProt P35968). As to the kind of experiment: Inhibition of recombinant human KDR (790 to end residues) at 1 uM using myelin basic protein as substrate after 40 mins in presence of [gamma-33P]ATP by scintillation counting method.
For series [13], the target named is Mitogen-activated protein kinase kinase kinase kinase 4 (Homo sapiens) (UniProt O95819). Nature of the series: Inhibition of recombinant human MAP4K4 (1 to 328 residues) at 1 uM using RLGRDKYKTLRQIRQ as substrate after 40 mins in presence of [gamma-33P]ATP by scintillation counting method.
The target in series [14] is Mitogen-activated protein kinase kinase kinase 3 (Homo sapiens) (UniProt Q99759). Nature of the series: Inhibition of recombinant full-length human MEKK3 at 1 uM using MBP as substrate after 40 mins in presence of [gamma-33P]ATP by scintillation counting method.
Chain of Mitogen-activated protein kinase kinase kinase 3 (Homo sapiens) (Q99759 whole entry): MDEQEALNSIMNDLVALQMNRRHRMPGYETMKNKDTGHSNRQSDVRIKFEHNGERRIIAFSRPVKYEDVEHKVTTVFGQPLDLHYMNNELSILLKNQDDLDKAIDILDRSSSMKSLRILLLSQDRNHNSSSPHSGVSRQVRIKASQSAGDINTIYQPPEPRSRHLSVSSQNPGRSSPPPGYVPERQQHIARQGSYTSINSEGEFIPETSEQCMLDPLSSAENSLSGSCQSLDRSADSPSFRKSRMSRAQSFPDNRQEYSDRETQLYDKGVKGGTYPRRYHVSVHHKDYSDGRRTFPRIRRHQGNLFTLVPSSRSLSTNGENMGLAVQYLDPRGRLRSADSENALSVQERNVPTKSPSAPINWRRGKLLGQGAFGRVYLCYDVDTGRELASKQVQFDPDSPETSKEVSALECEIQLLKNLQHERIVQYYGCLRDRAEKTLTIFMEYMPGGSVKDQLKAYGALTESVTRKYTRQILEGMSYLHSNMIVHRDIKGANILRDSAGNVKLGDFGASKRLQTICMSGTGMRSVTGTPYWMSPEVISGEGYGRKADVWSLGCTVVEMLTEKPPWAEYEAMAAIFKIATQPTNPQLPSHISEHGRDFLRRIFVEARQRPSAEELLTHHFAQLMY
For series [15], the target named is Serine/threonine-protein kinase PAK 3 (Homo sapiens) (UniProt O75914). Nature of the series: Inhibition of recombinant full-length human PAK3 at 1 uM using RRRLSFAEPG as substrate after 40 mins in presence of [gamma-33P]ATP by scintillation counting method.
Chain of Serine/threonine-protein kinase PAK 3 (Homo sapiens) (O75914 whole entry, looked up): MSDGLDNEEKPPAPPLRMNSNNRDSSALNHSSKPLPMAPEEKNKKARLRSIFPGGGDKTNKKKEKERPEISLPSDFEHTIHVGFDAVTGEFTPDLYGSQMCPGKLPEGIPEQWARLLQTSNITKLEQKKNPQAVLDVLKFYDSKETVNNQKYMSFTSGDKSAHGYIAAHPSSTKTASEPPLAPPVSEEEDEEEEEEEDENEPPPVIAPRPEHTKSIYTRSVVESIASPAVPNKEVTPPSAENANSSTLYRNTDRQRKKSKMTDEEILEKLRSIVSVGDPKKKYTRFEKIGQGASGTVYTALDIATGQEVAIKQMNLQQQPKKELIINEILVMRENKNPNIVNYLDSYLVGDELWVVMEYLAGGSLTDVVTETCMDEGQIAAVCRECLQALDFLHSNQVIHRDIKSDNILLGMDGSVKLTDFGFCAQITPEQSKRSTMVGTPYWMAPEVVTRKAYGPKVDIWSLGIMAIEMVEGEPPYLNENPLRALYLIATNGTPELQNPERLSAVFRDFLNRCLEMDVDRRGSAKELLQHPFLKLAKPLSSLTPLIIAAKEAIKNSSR
Series [16] has as its system Platelet-derived growth factor receptor alpha (Homo sapiens), P16234 [V561D]. Nature of the series: Inhibition of recombinant human PDGFRalpha V561D mutant (550 to end residues) at 1 uM using GGMEDIYFEFMGGKKK as substrate after 40 mins in presence of [gamma-33P]ATP by scintillation counting method.
Series [17] has as its target 3-phosphoinositide-dependent protein kinase 1 (Homo sapiens) (UniProt O15530). As to the kind of experiment: Inhibition of recombinant human PDK1 (52 to end residues) at 1 uM using KTFCGTPEYLAPEVRREPRILSEEEQEMFRDFDYIADWC (PDKtide) as substrate after 40 mins in presence of [gamma-33P]ATP by scintillation counting method.
Series [18] has as its target Phosphorylase b kinase gamma catalytic chain, liver/testis isoform (Homo sapiens) (UniProt P15735). As to the kind of experiment: Inhibition of recombinant human PhKgamma2 (1 to 301 residues) at 1 uM using KKLNRTLSFAEPG as substrate after 40 mins in presence of [gamma-33P]ATP by scintillation counting method.
Series [19] addresses PI3K p110 delta/p85 alpha (Mus musculus) (UniProt P26450+O35904). Nature of the series: Inhibition of recombinant full-length mouse p110d/p85a at 1 uM using phosphatidylinositol 4,5-bisphosphate as substrate after 40 mins in presence of [gamma-33P]ATP by scintillation counting method. It counts as protein-complex assay.
Series [20] relates to Proto-oncogene tyrosine-protein kinase receptor Ret (Homo sapiens), P07949 [V804M]. Nature of the series: Inhibition of recombinant human RET V804M mutant (658 to end residues) at 1 uM using KKKVSRSGLYRSPSMPENLNRPR as substrate after 40 mins in presence of [gamma-33P]ATP by scintillation counting method.
Chain of Proto-oncogene tyrosine-protein kinase receptor Ret (Homo sapiens), P07949 [V804M] (P07949 whole entry V804M): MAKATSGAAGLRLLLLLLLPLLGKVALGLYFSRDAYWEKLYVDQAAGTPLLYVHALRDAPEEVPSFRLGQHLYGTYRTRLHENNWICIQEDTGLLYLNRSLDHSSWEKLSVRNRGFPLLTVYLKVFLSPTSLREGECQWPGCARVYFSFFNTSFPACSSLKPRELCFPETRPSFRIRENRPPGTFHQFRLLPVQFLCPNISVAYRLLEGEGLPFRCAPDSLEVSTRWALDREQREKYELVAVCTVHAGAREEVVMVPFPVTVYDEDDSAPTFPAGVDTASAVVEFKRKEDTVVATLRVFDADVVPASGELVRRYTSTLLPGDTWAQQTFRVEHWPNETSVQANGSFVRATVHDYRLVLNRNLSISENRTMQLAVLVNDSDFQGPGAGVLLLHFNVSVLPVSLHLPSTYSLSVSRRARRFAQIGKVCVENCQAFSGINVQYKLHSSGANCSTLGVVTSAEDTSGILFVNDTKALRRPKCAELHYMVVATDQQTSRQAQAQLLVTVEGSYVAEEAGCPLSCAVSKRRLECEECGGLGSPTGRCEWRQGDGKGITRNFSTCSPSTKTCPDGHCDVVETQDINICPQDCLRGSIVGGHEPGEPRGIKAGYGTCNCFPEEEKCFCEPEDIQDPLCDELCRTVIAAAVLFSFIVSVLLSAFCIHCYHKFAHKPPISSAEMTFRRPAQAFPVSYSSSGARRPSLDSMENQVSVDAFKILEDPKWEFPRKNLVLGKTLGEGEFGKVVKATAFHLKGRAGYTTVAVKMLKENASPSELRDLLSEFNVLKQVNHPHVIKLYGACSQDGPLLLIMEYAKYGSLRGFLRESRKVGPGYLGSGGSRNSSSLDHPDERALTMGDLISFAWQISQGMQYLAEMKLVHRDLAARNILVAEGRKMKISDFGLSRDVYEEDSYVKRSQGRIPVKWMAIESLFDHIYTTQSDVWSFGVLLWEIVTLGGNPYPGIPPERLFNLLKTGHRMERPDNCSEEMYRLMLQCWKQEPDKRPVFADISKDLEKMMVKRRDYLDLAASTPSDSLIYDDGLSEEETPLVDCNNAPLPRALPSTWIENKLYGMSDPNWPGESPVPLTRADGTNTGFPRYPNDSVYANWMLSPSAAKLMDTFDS
Series [21] has as its target Tyrosine-protein kinase receptor TYRO3 (Homo sapiens) (UniProt Q06418). Nature of the series: Inhibition of recombinant human Rse (451 to end residues) at 1 uM using KVEKIGEGTYGVVYK as substrate after 40 mins in presence of [gamma-33P]ATP by scintillation counting method.
The target in series [22] is Serine/threonine-protein kinase TAO2 (Homo sapiens) (UniProt Q9UL54). As to the kind of experiment: Inhibition of recombinant human TAO2 (1 to 320 residues) at 1 uM using myelin basic protein as substrate after 40 mins in presence of [gamma-33P]ATP by scintillation counting method.
Series [23] concerns the target Tau-tubulin kinase 1 (Homo sapiens) (UniProt Q5TCY1). As to the kind of experiment: Inhibition of recombinant human TTBK1 (1 to 479 residues) at 1 uM using casein as substrate after 40 mins in presence of [gamma-33P]ATP by scintillation counting method.

We go through one compound from ChEMBL document CHEMBL4190187, “Discovery of pyrazolopyrimidine derivatives as novel inhibitors of ataxia telangiectasia and rad3 related protein (ATR)” (Bioorg Med Chem Lett, 2017).

For orientation: inhibition means the drop in the measured response relative to a control, in per cent.

Chain of Phosphorylase b kinase gamma catalytic chain, liver/testis isoform (Homo sapiens) (P15735 whole entry, the tested form may be a part, canonical isoform): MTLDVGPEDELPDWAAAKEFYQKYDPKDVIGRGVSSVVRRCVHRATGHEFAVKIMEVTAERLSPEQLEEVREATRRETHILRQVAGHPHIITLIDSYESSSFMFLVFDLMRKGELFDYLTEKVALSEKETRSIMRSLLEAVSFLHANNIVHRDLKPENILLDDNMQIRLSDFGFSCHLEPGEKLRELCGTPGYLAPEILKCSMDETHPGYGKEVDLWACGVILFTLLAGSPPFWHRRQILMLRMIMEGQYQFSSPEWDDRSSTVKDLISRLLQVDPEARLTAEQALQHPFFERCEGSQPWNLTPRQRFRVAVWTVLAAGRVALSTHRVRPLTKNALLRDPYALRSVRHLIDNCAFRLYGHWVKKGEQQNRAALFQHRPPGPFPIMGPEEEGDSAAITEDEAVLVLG
Chain of Bone morphogenetic protein receptor type-1B (Homo sapiens) (O00238 whole entry): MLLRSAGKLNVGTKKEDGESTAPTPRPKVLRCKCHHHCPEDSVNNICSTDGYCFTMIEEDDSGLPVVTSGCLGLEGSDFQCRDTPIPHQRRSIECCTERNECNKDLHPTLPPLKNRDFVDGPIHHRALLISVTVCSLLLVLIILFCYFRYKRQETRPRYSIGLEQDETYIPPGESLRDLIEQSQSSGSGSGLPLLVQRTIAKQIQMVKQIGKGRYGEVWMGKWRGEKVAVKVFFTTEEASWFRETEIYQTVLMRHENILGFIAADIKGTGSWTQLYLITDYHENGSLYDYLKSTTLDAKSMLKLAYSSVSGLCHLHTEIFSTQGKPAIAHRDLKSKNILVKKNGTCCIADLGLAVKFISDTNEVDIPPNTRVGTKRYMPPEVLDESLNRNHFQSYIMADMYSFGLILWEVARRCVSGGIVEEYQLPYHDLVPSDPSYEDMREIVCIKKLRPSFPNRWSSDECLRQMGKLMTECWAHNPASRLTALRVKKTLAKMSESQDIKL
Chain of Tyrosine-protein kinase receptor TYRO3 (Homo sapiens) (Q06418 whole entry, the tested form may be a part): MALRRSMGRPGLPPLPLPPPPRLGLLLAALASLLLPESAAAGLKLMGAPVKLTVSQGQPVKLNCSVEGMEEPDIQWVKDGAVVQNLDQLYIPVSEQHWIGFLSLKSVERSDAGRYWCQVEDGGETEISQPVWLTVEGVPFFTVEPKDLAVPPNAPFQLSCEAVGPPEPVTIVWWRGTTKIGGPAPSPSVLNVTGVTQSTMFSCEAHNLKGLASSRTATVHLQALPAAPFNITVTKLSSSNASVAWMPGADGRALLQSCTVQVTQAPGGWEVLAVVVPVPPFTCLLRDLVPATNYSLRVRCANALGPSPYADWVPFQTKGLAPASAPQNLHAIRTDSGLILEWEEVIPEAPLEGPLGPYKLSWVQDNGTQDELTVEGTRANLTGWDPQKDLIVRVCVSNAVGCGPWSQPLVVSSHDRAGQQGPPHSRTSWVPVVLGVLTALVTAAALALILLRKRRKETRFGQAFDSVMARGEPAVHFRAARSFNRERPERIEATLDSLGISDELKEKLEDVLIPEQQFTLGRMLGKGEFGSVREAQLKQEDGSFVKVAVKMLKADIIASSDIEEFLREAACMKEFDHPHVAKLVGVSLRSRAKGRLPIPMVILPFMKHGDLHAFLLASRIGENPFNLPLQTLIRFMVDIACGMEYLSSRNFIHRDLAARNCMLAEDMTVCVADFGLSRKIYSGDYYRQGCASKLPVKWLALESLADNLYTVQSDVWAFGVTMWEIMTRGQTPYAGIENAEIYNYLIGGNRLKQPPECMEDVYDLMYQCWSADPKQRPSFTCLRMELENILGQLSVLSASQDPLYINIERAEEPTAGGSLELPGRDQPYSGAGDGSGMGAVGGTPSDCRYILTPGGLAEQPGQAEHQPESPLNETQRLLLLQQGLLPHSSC

Consider `CS(=O)(=O)c1ccc(-n2nc(-c3cnc4[nH]ccc4c3)c3c(N)ncnc32)cc1`, for which, in the series on Mus musculus, the F stood at 2.83%. Besides, the inhibition in series [1] is 18%; in series [2], 7%; in series [3], -8%; in series [4] it was -5%; in [5], 4%; in series [6], 12%. For the same compound, the inhibition in [7] was 59%; in [8], 90%; in [9] it was -8%; in [10] it was -5%; in series [11], 4%; in series [12], 72%. The inhibition is -8% in series [13]; 9% in series [14]; 4% in series [15]; 66% in [16]; -6% in series [17]; 16% in [18]. The inhibition was 27% in series [19]; 14% in series [20]; 4% in [21]; 9% in series [22]; 11% in [23].
